In one experiment the test system is HAEo- cells. In words: LID transfection, luciferase reporter assay, HAEo-. To be noted: LID with lipofectin. It is filed as cell-based, human. Here is the method:
Transfection complexes comprising lipid, peptide and DNA were prepared. The lipid component was lipofectin (Invitrogen Ltd, Paisley, UK), the peptide component was a peptide A to F, 6 or 6J derivative, as described above, and the DNA was the plasmid pCILuc (Promega UK Ltd, Southampton). In the transfection complex, peptide to DNA charge ratios (+/−) were used at 3:1, 5:1 and 7:1. The lipid component was maintained at a constant proportion, by weight, relative to DNA of 0.75:1. Prior to making transfection complexes the lipid component was diluted to a concentration of 15 μg or 30 μg per ml, the peptide was prepared at 0.1 mg/ml and the DNA was at 40 μg per ml. All dilutions were performed with OptiMEM reduced serum tissue culture medium (Life Technologies). Transfection complexes were made by mixing of components in the order 1) lipid then 2) peptide and finally 3) DNA, then diluted with OptiMEM to a concentration relative to the DNA component of 0.25 μg DNA per […]
For transfection of these types of cell i.e. HMEC, HAEo-, N2a and HepG2, 1×10^4 cells were seeded overnight in 96 well plate. 200 μl of the suspension of the transfection complex prepared according to (b) above was added to each well. The suspension was applied to cells within 5 minutes of preparation. […]
(In general: A reporter such as luciferase makes a cellular process visible.)

Experiment [1] has as its system primary mouse dendritic cells. Description: Adenoviral transduction of mouse dendritic cells. It is filed as cell-based. The conditions noted are these: bone marrow derived DCs. Here is the method: Mouse dendritic cells were prepared from whole bone marrow flushed from the marrow cavities of the femur and tibia of 5-7 week old A/J mice and cultured in Hepes buffered RPMI+Glutamax (InVitrogen, Paisley, U. K.) supplemented with 10% FCS, penicillin/streptomycin and 20 ng/ml recombinant GM-CSF. Cytokines were added to the same concentration on day 3 and the dendritic cells isolated from the floating cell fraction by MACs CD11c microbeads (Miltenyi Biotec, Bisley, U. K.) on day 6.
Day 6 dendritic cells (see Example 1(v) above), or mouse bone marrow derived dendritic cells or mouse Sca1+ve stem cells, see (i) and (ii) above, were plated at 5×10^4 cells per well in a 48 well plate in 500 μl complete medium and allowed to settle for 3 hours at 37° C. Transductions were carried out in complete media, with virus being added at 100,000 viral particles/cell for 24 hours. Cells were harvested by scraping, spun down at 650 g (2000 rpm) for 5 min, resuspended in 300 μl PBS, and kept on ice before analysis. Viral transduction as determined by percentage of GFP positive cells was measured by FACS analysis. […] Cells were then washed twice in PBS, trypsinised, triplicate wells pooled, spun down at 350×g for 5 min and resuspended in 300 μl PBS before analysis by flow cytometry where cell viability was to be measured, 10 μl 7AAD was added just prior to analysis.

The test system of the next experiment is Neuro-2A cells. In words: Adenoviral transduction of Neuro-2A cells. The format is cell-based, mouse. To be noted: 10,000 particles per cell in OptiMEM. Here is the method:
(§1) Day 6 dendritic cells (see Example 1(v) above), or mouse bone marrow derived dendritic cells or mouse Sca1+ve stem cells, see (i) and (ii) above, were plated at 5×10^4 cells per well in a 48 well plate in 500 μl complete medium and allowed to settle for 3 hours at 37° C. Transductions were carried out in complete media, with virus being added at 100,000 viral particles/cell for 24 hours. Cells were harvested by scraping, spun down at 650 g (2000 rpm) for 5 min, resuspended in 300 μl PBS, and kept on ice before analysis. Viral transduction as determined by percentage of GFP positive cells was measured by FACS analysis. To measure percentage viability, 10 μl of 7-amino-actinomycin D (7AAD; Sigma, Poole, Dorset) was added immediately prior to analysis. Viral transduction of macrophages was carried out at 10,000 particles/cell in medium containing 2.5% FCS. […] Cells were then washed twice in PBS, trypsinised, triplicate wells pooled, spun down at 350×g for 5 min and resuspended in 300 μl PBS before analysis by flow cytometry where cell viability was to be measured, 10 μl 7AAD was added just prior to analysis.
(§2) For transduction of these other cell types, cells were seeded overnight at 5×10^4 cells per well in 24 well plates in the appropriate media. […] Where cell viability was to be measured, 10 μl 7-amino-actinomycin D (7AAD; Sigma, Poole, Dorset) was added just prior to analysis. […]

The test system of another experiment is 1HAEo- cells. In words: Adenoviral transduction of 1HAEo- cells. To be noted: 10,000 particles per cell in OptiMEM; listed as peptide A. The format is cell-based, human. Here is the method: as §1, §2
Another experiment concerns HepG2 cells. Description: Adenoviral transduction of HepG2 cells. It is filed as cell-based, human. The conditions noted are these: 10,000 particles per cell in OptiMEM; listed as peptide A. On the procedure: as §1, §2
Experiment [2] deals with day 6 immature dendritic cells. Description: Maturation of adenovirus-transduced dendritic cells in response to LPS (marker flow cytometry). The format is cell-based, human. To be noted: LPS 50 ng/ml; virus 100,000 particles per cell. On the procedure:
Day 6 immature dendritic cells were infected with retargeted Ad or Ad5 at 100,000 particles per cell in complete medium for 24 hours, with E. coli 026:B6 lipopolysaccharide (LPS) added following 3 hours incubation at a concentration of 50 ng/ml. As controls, dendritic cells were either incubated in complete medium for 24 hours or matured by the addition of LPS in complete medium for 24 hours, In all samples IL-4 and GM-CSF were present in the complete medium at 25 ng/ml and 100 ng/ml respectively. Cells were then phenotyped by staining as follows: a minimum of 5×10^4 cells in a volume of less than 2 ml medium were added to the recommended amount of antibody and incubated for 20 min on ice. 2 ml of ice-cold PBS was added before centrifugation at 300×g for 5 min at 4° C. The supernatant was flicked off and the pellet resuspended in 300 μl ice cold PBS. Cells from each sample were stained with antibodies to HLA-DR, CD40, CD80, CD83, CD86 and isotype matched control antibodies. Where cell viability was also measured, […] of 7AAD was added immediately prior to analysis. Cells were analysed by flow cytometry using a Epics XL (Beckman Coulter, High Wycombe, UK.) and the EXPO32 analysis software (Beckman Coulter).

The subject of the next experiment is HMEC-1 cells. Description: Adenoviral transduction of HMEC-1 cells. The conditions noted are these: 10,000 particles per cell in OptiMEM; listed as peptide A. The format is cell-based, human. Here is the method:
as §1, §2

The text below walks through data of patent publication US7820624B2, “Peptide ligands” (ICH Productions Limited, priority 2003, dated 2010).

As to “APSNSTA (Synthetic peptide binding to dendritic cells)”, in the experiment on HAEo- cells, the “Transfection efficiency (luciferase activity per mg protein) relative to peptide 6” value is “one and a half times that using peptide 6”.
With “SHVKLNS (Synthetic peptide binding to dendritic cells) [listing 1 of 2 here]”, the Transduction efficiency in experiment [1] was found to be 71.7%. Moreover, the “Transduction, % GFP-positive cells” value in the experiment with Neuro-2A cells turned out to be 63.5%. In addition, in the experiment with 1HAEo- cells, the “Transduction, % cells transduced” value was determined as 82.9%. Besides, the “Transduction, % cells transduced” value in the experiment on HepG2 cells came out at 88.5%. In experiment [2], this substance gave a CD40 positive cells of 15.6%, a CD80 positive cells of 16.5%, a CD83 positive cells of 24.6% and a CD86 positive cells of 98.4%. Moreover, the HLA-DR positive cells in experiment [2] is reported as 58.1%. Besides, the “Transduction, % cells transduced” value in the experiment on HMEC-1 cells was determined as 95.7%.
In the case of “SHVKLNS (Synthetic peptide binding to dendritic cells) [listing 2 of 2 here]”, the “Transfection efficiency (luciferase activity per mg protein) relative to peptide 6” value in the experiment with HAEo- cells is reported as “approximately double that seen with peptide 6”.
